The compounds below were run against T1, APOL1 (Homo sapiens, UniProt O14791) (assay: MultiTox-Fluor Multiplex Cytotoxicity Assay in tet-inducible APOL1 T-REx-HEK293 cells (cell rescue, ratio of dead to live cells)). Settings: tet-inducible transgenic APOL1 T-REx-HEK293 cell lines, 50 ng/mL tet, 24 hours; read-out: IP50 (i.e., IC50 for cell proliferation).
T1 sequence (O14791 1-398 S342G/I384M): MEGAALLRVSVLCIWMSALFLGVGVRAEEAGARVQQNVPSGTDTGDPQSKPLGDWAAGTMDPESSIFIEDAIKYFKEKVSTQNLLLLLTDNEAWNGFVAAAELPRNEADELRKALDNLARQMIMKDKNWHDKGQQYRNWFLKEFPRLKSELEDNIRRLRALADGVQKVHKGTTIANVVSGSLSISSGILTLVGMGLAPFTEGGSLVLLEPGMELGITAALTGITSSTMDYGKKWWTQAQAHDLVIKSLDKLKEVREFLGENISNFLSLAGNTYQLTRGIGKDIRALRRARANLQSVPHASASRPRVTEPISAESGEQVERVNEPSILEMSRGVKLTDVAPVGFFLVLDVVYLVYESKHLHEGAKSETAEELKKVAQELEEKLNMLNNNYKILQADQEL
Assay type: cell-based
Summary of the method: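 T-REx-HEK293 cells with tet-inducible APOL1 were treated with compound (10 μM top, 10-point 3-fold dilution, duplicate) plus 50 ng/mL tetracycline for 24 h at 37° C, in DMEM with 2% tet-free FBS. MultiTox-Fluor protease signals gave a dead/live ratio, normalized to no tet (100% viability) and tet alone (0%).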

SMILES	IC50
C[C@H]1C[C@@]2(CCN1Cc1cn(CCS(C)(=O)=O)nn1)OCC(=O)c1cc(Cl)sc12 [Compound 822, (2S,4R)-2′-chloro-2-methyl-1-[[1-(2-methylsulfonylethyl)triazol-4-yl]methyl]spiro[piperidine-4,7′-thieno[2,3-c]pyran]-4′-one]	100 to 500 nM
CCc1cc2c(s1)CCO[C@@]21CCN(Cc2cn(C[C@H]3C[C@@H](O)C3)nn2)[C@@H](C)C1 [Compound 126]	< 100 nM
CC(C)NC(=O)Cn1cc(CN2CC[C@]3(C[C@@H]2C)OCCc2c3sc(C(F)(F)F)c2CO)cn1 [Compound 909]	< 100 nM
CCc1cc2c(s1)CCO[C@@]21CCN(Cc2cn(CC3CCCCS3(=O)=O)nn2)[C@@H](C)C1 (stereo partly drawn) [Compound 158]	< 100 nM
CCc1cc2c(s1)CCO[C@@]21CCN(CC2CN(C(=O)CCC3CCCC3)C2)[C@@H](C)C1 [Compound 434]	< 100 nM
C[C@H]1C[C@@]2(CCN1C[C@H](O)C(N)=O)OCCc1cc(CC(F)F)sc12 [Compound 611, (2S)-3-[(2′S, 7R)-2-(2,2-difluoroethyl)-2′-methyl-spiro[4,5-dihydrothieno[2,3-c]pyran-7,4′-piperidine]-1′-yl]-2-hydroxy-propanamide]	< 100 nM
CCc1cc2c(s1)CCOC21CCN(Cc2cn(Cc3cc(C(N)=O)co3)nn2)CC1 [Compound 1106]	500 to 1000 nM
CCc1cc2c(s1)CCOC21CCN(Cc2c[nH]cn2)CC1 [Compound 1141]	500 to 1000 nM
C[C@H]1C[C@@]2(CCN1Cc1cn(CCS(C)(=O)=O)nn1)OC[C@](O)(C(F)F)c1cc(Cl)sc12 [Compound 832]	< 100 nM
CCc1cc2c(s1)CCO[C@@]21CCN(Cc2cn(CCc3ncn[nH]3)nn2)[C@@H](C)C1 [Compound 67]	< 100 nM
C[C@H]1C[C@@]2(CCN1Cc1cnn(CCS(C)(=O)=O)c1)OC[C@](O)(C(F)F)c1cc(Cl)sc12 [Compound 827, (2′S,4S,7R)-2-chloro-4-(difluoromethyl)-2′-methyl-1′-[[1-(2-methylsulfonylethyl)pyrazol-4-yl]methyl]spiro[5H-thieno[2,3-c]pyran-7,4′-piperidine]-4-ol]	< 100 nM
CS(=O)(=O)CCn1cc(CN2CCC3(CC2)OCC(O)c2cc(Cl)sc23)cn1 (stereo not drawn) [Compound 1181, 2-chloro-1′-[[1-(2-methylsulfonylethyl)pyrazol-4-yl]methyl]spiro[4,5-dihydrothieno[2,3-c]pyran-7,4′-piperidine]-4-ol]	500 to 1000 nM
CCc1cc2c(s1)CCO[C@@]21CCN(CC(C)C)[C@@H](C)C1 [Compound 276]	500 to 1000 nM
C[C@H]1C[C@@]2(CCN1Cc1cnn(CCS(C)(=O)=O)c1)OCC(N1C(=O)c3ccccc3C1=O)c1cc(Cl)sc12 (stereo partly drawn) [Compound 853, 2-[(2′S, 7R)-2-chloro-2′-methyl-1′-[[1-(2-methylsulfonylethyl)pyrazol-4-yl]methyl]spiro[4,5-dihydrothieno[2,3-c]pyran-7,4′-piperidine]-4-yl]isoindoline-1,3-dione]	100 to 500 nM
C[C@H]1C[C@@]2(CCN1Cc1cnccn1)OCCc1cc(Cl)sc12 [Compound 666]	100 to 500 nM
C[C@H]1C[C@@]2(CCN1Cc1cn(CCS(C)(=O)=O)nn1)OCCc1c2sc(C(F)(F)F)c1CO [Compound 871, [(2′S, 7R)-2′-methyl-1′-[[1-(2-methylsulfonylethyl)triazol-4-yl]methyl]-2-(trifluoromethyl)spiro[4,5-dihydrothieno[2,3-c]pyran-7,4′-piperidine]-3-yl]methanol]	< 100 nM
CCc1cc2c(s1)CCO[C@@]21CCN(CC2CN(C(=O)C3CCCCC3)C2)[C@@H](C)C1 [Compound 448]	100 to 500 nM
CCc1cc2c(s1)CCO[C@@]21CCN(Cc2cn(C3CCCN(C(C)=O)C3)nn2)[C@@H](C)C1 (stereo partly drawn) [Compound 61]	100 to 500 nM
CCc1cc2c(s1)CCO[C@@]21CCN(Cc2cn(CCS(=O)(=O)NCC(C)O)nn2)[C@@H](C)C1 (stereo partly drawn) [Compound 7, 2-[4-[[(2′S,4R)-2-ethyl-2′-methyl-spiro[6,7-dihydrothieno[3,2-c]pyran-4,4′-piperidine]-1′-yl]methyl]triazol-1-yl]-N-(2-hydroxypropyl)ethanesulfonamide]	< 100 nM
CCc1cc2c(s1)CCOC21CCN(Cc2cn(CC(O)c3cnn(C)c3)nn2)CC1 (stereo not drawn) [Compound 1097]	500 to 1000 nM
CCc1cc2c(s1)CCO[C@@]21CCN(Cc2cn(Cc3ncccn3)nn2)[C@@H](C)C1 [Compound 51]	100 to 500 nM
C[C@H]1C[C@@]2(CCN1Cc1cnn(CC(C)(CO)CO)c1)OCCc1cc(CC(F)F)sc12 [Compound 561, 2-[[4-[[(2′S, 7R)-2-(2,2-difluoroethyl)-2′-methyl-spiro[4,5-dihydrothieno[2,3-c]pyran-7,4′-piperidine]-1′-yl]methyl]pyrazol-1-yl]methyl]-2-methyl-propane-1,3-diol]	< 100 nM
COCCn1cc(CN2CC[C@]3(C[C@@H]2C)OCCc2c3sc(C(F)(F)F)c2CO)cn1 [Compound 906]	< 100 nM

SMILES	IC50
CNC(=O)C(C)(O)Cn1cc(CN2CC[C@]3(C[C@@H]2C)OCCc2c3sc(C(F)(F)F)c2CO)cn1 (stereo partly drawn) [Compound 990, 2-Hydroxy-3-[4-[[(2′S, 7R)-3-(hydroxymethyl)-2′-methyl-2-(trifluoromethyl)spiro[4,5-dihydrothieno[2,3-c]pyran-7,4′-piperidine]-1′-yl]methyl]pyrazol-1-yl]-N,2-dimethyl-propanamide]	< 100 nM
CCc1cc2c(s1)CCO[C@@]21CCN(CC2CNC2)[C@@H](C)C1 [Compound 421, (2′S,4R)-1′-(azetidin-3-ylmethyl)-2-ethyl-2′-methyl-spiro[6,7-dihydrothieno[3,2-c]pyran-4,4′-piperidine]]	500 to 1000 nM
CCc1cc2c(s1)[C@]1(CCN(Cc3cnn(CCS(C)(=O)=O)c3)[C@@H](C)C1)OCC2O (stereo partly drawn) [Compound 1037, (2′S, 7R)-2-ethyl-2′-methyl-1′-[[1-(2-methylsulfonylethyl)pyrazol-4-yl]methyl]spiro[4,5-dihydrothieno[2,3-c]pyran-7,4′-piperidine]-4-ol]	< 100 nM
CCc1cc2c(s1)CCO[C@@]21CCN(Cc2cn(Cc3nnc4n3CCCC4)nn2)[C@@H](C)C1 [Compound 52]	< 100 nM
CCc1cc2c(s1)CCO[C@@]21CCN(CC(C)O)[C@@H](C)C1 (stereo partly drawn) [Compound 242]	100 to 500 nM
CCc1cc2c(s1)CCOC21CCN(Cc2cn(CC(C)(O)COC)nn2)C(C)C1 (stereo not drawn) [Compound 84]	< 100 nM
CCc1cc2c(s1)CCO[C@@]21CCN(C[C@H]2C[C@@H](NC(=O)C(C)(C)C#N)C2)[C@@H](C)C1 [Compound 336]	100 to 500 nM
CCc1cc2c(s1)CCOC21CCN(Cc2cn(CC(O)CC)nn2)C(C)C1 (stereo not drawn) [Compound 133]	< 100 nM
CCc1cc2c(s1)CCOC21CCN(CC2CN(C(=O)OC(C)(C)C)C2)CC1 [Compound 1149]	500 to 1000 nM
C[C@H]1C[C@@]2(CCN1Cc1cn(CCS(C)(=O)=O)nn1)OCCc1sc(Br)cc12 [Compound 522, (2′S,4R)-2-bromo-2′-methyl-1′-[[1-(2-methylsulfonylethyl)triazol-4-yl]methyl]spiro[6,7-dihydrothieno[3,2-c]pyran-4,4′-piperidine]]	< 100 nM
CCc1cc2c(s1)CCOC21CCN(Cc2cn(CC(=O)NC)nn2)CC1 [Compound 1107]	500 to 1000 nM
CCc1cc2c(s1)CCOC21CCN(Cc2cn(CC3(OCCO)CCOC3)nn2)C(C)C1 (stereo not drawn) [Compound 119]	< 100 nM
C[C@H]1C[C@@]2(CCN1Cc1cnn(CCS(C)(=O)=O)c1)OCC(N)c1cc(Cl)sc12 (stereo partly drawn) [Compound 854, (2′S, 7R)-2-chloro-2′-methyl-1′-[[1-(2-methylsulfonylethyl)pyrazol-4-yl]methyl]spiro[4,5-dihydrothieno[2,3-c]pyran-7,4′-piperidine]-4-amine]	< 100 nM
C[C@H]1C[C@@]2(CCN1Cc1cn(CCS(C)(=O)=O)nn1)OCCc1sc(Cl)cc12 [Compound 511]	< 100 nM
CCc1cc2c(s1)CCO[C@@]21CCN(C)[C@@H](C)C1 [Compound 277]	500 to 1000 nM
C[C@H]1C[C@@]2(CCN1C[C@H](O)C(=O)N(C)C)OCCc1cc(Cl)sc12 [Compound 711, (2S)-3-[(2′S, 7R)-2-chloro-2′-methyl-spiro[4,5-dihydrothieno[2,3-c]pyran-7,4′-piperidine]-1′-yl]-2-hydroxy-N,N-dimethyl-propanamide]	100 to 500 nM
CCc1cc2c(s1)CCO[C@@]21CCN(CC2CN(C(=O)C3(O)CCOCC3)C2)[C@@H](C)C1 [Compound 437]	< 100 nM
CC1CO[C@@]2(CCN(Cc3cn(CCS(C)(=O)=O)nn3)[C@@H](C)C2)c2cc(C(F)(F)F)sc21 (stereo partly drawn) [Compound 534, (2S,4R)-2,7′-dimethyl-1-((1-(2-(methylsulfonyl)ethyl)-1H-1,2,3-triazol-4-yl)methyl)-2′-(trifluoromethyl)-6′,7′-dihydrospiro[piperidine-4,4′-thieno[3,2-c]pyran]]	< 100 nM
CCc1cc2c(s1)CCO[C@@]21CCN(Cc2cn(CCn3ccnc3C)nn2)[C@@H](C)C1 [Compound 68]	100 to 500 nM
Cc1cccc(CN2CC[C@]3(C[C@@H]2C)OC[C@H](O)c2cc(Cl)sc23)n1 [Compound 808]	500 to 1000 nM
CCc1cc2c(s1)CCO[C@@]21CCN(Cc2cn(CC(C)(C)CCO)nn2)[C@@H](C)C1 [Compound 80]	100 to 500 nM
CCc1cc2c(s1)CCO[C@@]21CCN(Cc2cn(CCN3CCCC3=O)nn2)[C@@H](C)C1 [Compound 194]	500 to 1000 nM

— patent US20250171459A1, “2-METHYL-4',5'-DIHYDROSPIRO[PIPERIDINE-4,7'-THIENO[2,3-C]PYRAN] DERIVATIVES AS INHIBITORS OF APOL1 AND METHODS OF USING SAME” (Vertex Pharmaceuticals Incorporated, priority 2022, published 2025)
